Like-named read-outs stand apart in the source and are kept apart here.
Assays:
[1] = target: T1, recombinant human bradykinin B2 receptor (Homo sapiens, UniProt P30411); assay: [3H]-BK competition radioligand binding to human cloned B2 receptor (CHO cell membranes)
T1 construct: expressed in transfected cells; host or cells: Chinese hamster ovary (CHO) cells, membrane homogenates
T1 sequence (P30411 1-391): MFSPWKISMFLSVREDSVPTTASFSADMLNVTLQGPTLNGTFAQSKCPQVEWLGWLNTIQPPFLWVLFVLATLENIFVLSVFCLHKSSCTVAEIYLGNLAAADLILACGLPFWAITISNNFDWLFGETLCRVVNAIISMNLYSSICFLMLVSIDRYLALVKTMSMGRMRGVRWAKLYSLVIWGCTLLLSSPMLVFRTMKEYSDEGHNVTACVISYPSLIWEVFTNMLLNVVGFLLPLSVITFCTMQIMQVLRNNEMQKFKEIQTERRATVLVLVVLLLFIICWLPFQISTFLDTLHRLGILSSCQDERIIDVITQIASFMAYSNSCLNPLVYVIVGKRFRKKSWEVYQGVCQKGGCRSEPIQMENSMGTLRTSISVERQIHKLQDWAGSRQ
Protocol: Chinese hamster ovary (CHO) cell membrane homogenates (2.5 μg protein) expressing the recombinant human bradykinin B2 receptor were incubated for 60 min at 23° C. with 0.2 nM [^3H]-bradykinin (95.5 Ci/mmole, PerkinElmer) in the absence or presence of the test compound in a buffer containing 50 mM Tris/HCl (pH 7.4), 0.2 g/L 1-10-phenanthroline and 0.1% BSA. All reagent and test compound additions to the assay plates were made using Biomek 3000 robotic workstations (Beckman Instruments, Fullerton, Calif.). Nonspecific binding was determined in the presence of 1 μM unlabeled bradykinin. Following the incubation, the assay was terminated by rapid filtration under vacuum through glass fiber filters (GF/C, PerkinElmer) presoaked with 0.3% polyethyleneimine and rinsed several times with an ice-cold 50 mM Tris-HCl buffer using a 96-sample cell harvester (Tomtec). The filters were air-dried and the radioactivity counted in a beta-scintillation counter (Topcount, PerkinElmer) using a scintillation cocktail (Microscint 20, PerkinElmer) (Sharif and Whiting, Neurochem. Int. 18: 89-96, 1991). Competitive binding inhibition curves were generated using a 7-point concentration—response of test compound in duplicate. Bradykinin peptide was also tested as an internal control in the assay. The data were analyzed using nonlinear, iterative curve-fitting to obtain the potency and intrinsic activities of the test agents as previously described (Sharif et al. J. Pharmacol. Exp. Ther. 286: 1094-1102, 1998; Sharif et al. Invest Ophthalmol. Vis. Sci. 39:2562-2571, 1998; Kelly et al. J. Pharmacol. Exp. Ther. 304: 238-245, 2003). Determined IC50 values were converted to Ki values using the standard Cheng-Prusoff equation.

[2] = target: T2, BK receptors in human ciliary muscle cells (h-CM) (Homo sapiens, UniProt P30411); assay: Functional assay measuring [Ca2+]i mobilization (FLIPR) in h-CM cells; type: cell-based; settings: class symbols (in μM), read-out: CaM (EC50)
T2 construct: h-CM cells expressing BK receptors were seeded; endogenous in cells; host or cells: human ciliary muscle (h-CM) cells
T2 sequence (P30411 1-391): T1 sequence (P30411 1-391)
Protocol: On the day of the experiment, media was removed, cells were rinsed and 50 μL of serum-free media added. One vial of FLIPR Calcium Assay Kit dye was reconstituted in 50 mL of a FLIPR buffer consisting of Hank's Balanced Salt Solution (HBSS), 20 mM HEPES, and 2.5 mM probenecid, pH 7.4. Cells were loaded with the calcium-sensitive dye by addition of an equal volume (50 μL) to each well of the 96-well plate and incubated with dye for 1 h at 23° C. […] After this time, the test compound plate and cell plate were placed in a Fluorescence Imaging Plate Reader (FLIPR-Tetra®) instrument (Molecular Devices/MDSPharma, Sunnyvale, Calif.). At the beginning of an experimental run, a signal test was performed to check the basal fluorescence signal from the dye-loaded cells and the uniformity of the signal across the plate. […] An aliquot (25 μL) of the test compound was added to the existing 100 μL dye-loaded cells at a dispensing speed of 50 μL/sec. Intracellular calcium mobilization was measured by monitoring real-time changes in cellular fluorescence upon test compound addition. Fluorescence data were collected in real-time at 1.0 sec intervals for the first 60 seconds and at 6.0 second intervals for an additional 120 seconds. Baseline fluorescence readings were normalized across the plate and background-corrected from negative control wells. […] EC50 values were determined by 4-parameter nonlinear curve fitting of the concentration-response curve. Calibration of the instrument was performed using manufacturer's standard procedures.

[3] = test system: primary human ciliary muscle cells (h-CM); assay: Total prostaglandin (PG) release from primary h-CM cells (EIA); type: cell-based; settings: 1 hour at 37° C., class symbols (in μM)
Protocol: BK agonist compounds of Formula 1 were evaluated for the ability to induce prostaglandin (PG) release from primary human ciliary muscle cells (h-CM). Briefly, h-CM cells were grown to confluence in FNC-coated 24-well culture plates and serum-starved (0.8% FBS) for 24 hours prior to the experiment. Cells were stimulated with a 9-pt concentration-response (0.1 nM-10 μM) of bradykinin or BK agonist for 1 hour at 37° C. with subsequent sample recovery and processing for total PG measurement. Total PG measurement was determined using a total Prostaglandin Screening EIA kit (cat#514012) purchased from Cayman Chemical (Ann Arbor, Mich.). The assay was conducted according to the package insert from the manufacturer.

[4] = 0.2 nM [3H]-bradykinin, CHO membranes, 60 min 23° C., mean ± SEM or single value, Ki from IC50 by Cheng-Prusoff, read-out: [3H]-BK Binding to Human Cloned B2 Receptor (Ki)
[5] = same assay as E1, given as class symbols (in μM), read-out: [3H]-BK Binding to Human Cloned B2 Receptor (Ki, nM), class symbols

Ki [1, 4] [µM]	EC50 [2] [µM]	Compound	other results
	< 0.1	4-(3-((2-((2,4-dichloro-3-(((2-methyl-4-(pyridin-2-ylmethoxy)quinolin-8-yl)oxy)methyl)phenyl)(methyl)amino)-2-oxoethyl)amino)-3-oxopropyl)-N-methylbenzamide [Compound 31]	EC50 [3]: 0.1 to 1 µM
	0.1 to 1	5-(3-((2-((2,4-dichloro-3-(((2-methyl-4-((pyridin-2-ylmethyl)amino)quinolin-8-yl)oxy)methyl)phenyl)(methyl)amino)-2-oxoethyl)amino)-3-oxopropyl)-N-methylpicolinamide [Compound 49]	EC50 [3]: 0.1 to 1 µM
0.071 ± 0.03	0.1 to 1	COc1nc2c(OCc3c(Cl)ccc(N(C)C(=O)CNC(=O)CCc4ccc(NS(C)(=O)=O)nc4)c3Cl)cccc2n1Cc1ccccn1 [Compound 5, N-(2-((2,4-dichloro-3-(((2-methoxy-1-(pyridin-2-ylmethyl)-1H-benzo[d]imidazol-4-yl)oxy)methyl)phenyl)(methyl)amino)-2-oxoethyl)-3-(6-(methylsulfonamido)pyridin-3-yl)propanamide]	
0.01 ± 0.002	< 0.1	COC(=O)Nc1ccc(CCC(=O)NCC(=O)N(C)c2ccc(C)c(COc3cccc4c3nc(OC)n4Cc3ccccn3)c2C)cn1 [Compound 6]	Ki [1, 5]: < 0.1 µM
0.197	0.1 to 1	COc1nc2c(OCc3c(Cl)ccc(N(C)C(=O)CNC(=O)CN4CCOCC4)c3Cl)cccc2n1Cc1ccccn1 [Compound 14, N-(2,4-dichloro-3-(((2-methoxy-1-(pyridin-2-ylmethyl)-1H-benzo[d]imidazol-4-yl)oxy)methyl)phenyl)-N-methyl-2-(2-morpholinoacetamido)acetamide]	
0.467	0.1 to 1	COc1nc2c(OCc3c(Cl)ccc(N(C)C(=O)CNC(=O)CN4CCC(NC(C)=O)CC4)c3Cl)cccc2n1Cc1ccccn1 [Compound 15, 2-(2-(4-acetamidopiperidin-1-yl)acetamido)-N-(2,4-dichloro-3-(((2-methoxy-1-(pyridin-2-ylmethyl)-1H-benzo[d]imidazol-4-yl)oxy)methyl)phenyl)-N-methylacetamide]	
0.274 ± 0.069	0.1 to 1	COc1nc2c(OCc3c(Cl)ccc(N(C)C(=O)CNC(=O)CCN4CCN(C(=O)N(C)C)CC4)c3Cl)cccc2n1Cc1ccccn1 [Compound 17]	
0.239 ± 0.15	0.1 to 1	COC(=O)N1CCN(CCC(=O)NCC(=O)N(C)c2ccc(Cl)c(COc3cccc4c3nc(OC)n4Cc3ccccn3)c2Cl)CC1 [Compound 18]	
1.73 ± 0.428	> 1	CCc1nc2c(OCc3c(Cl)ccc(N(C)C(=O)CNC(=O)CNC4CCN(C(=O)NC)CC4)c3Cl)cccn2c1C(O)c1ccccn1 (stereo not drawn) [Compound 23]	
2.14 ± 0.223	0.1 to 1	CCc1nc2c(OCc3c(Cl)ccc(N(C)C(=O)CNC(=O)CCN4CCN(C(=O)NC)CC4)c3Cl)cccn2c1C(O)c1ccccn1 (stereo not drawn) [Compound 26]	
0.015	0.1 to 1	CC(=O)Nc1ccc(CC(=O)NCC(=O)N(C)c2ccc(Cl)c(COc3cccc4c(OCc5ccccn5)cc(C)nc34)c2Cl)cc1 [Compound 50]	
0.701	0.1 to 1	COc1nc2c(OCc3c(C)ccc(N(C)C(=O)CNC(=O)CN4CCC(NC(C)=O)CC4)c3C)cccc2n1Cc1ccccn1 [Compound 51]	
0.0157	0.1 to 1	CNC(=O)C1CCN(CC(=O)NCC(=O)N(C)c2ccc(C)c(COc3cccc4c3nc(OC)n4Cc3ccccn3)c2C)CC1 [Compound 52]	
0.34	0.1 to 1	CNC(=O)CN1CCN(CC(=O)NCC(=O)N(C)c2ccc(Cl)c(COc3cccc4c3nc(OC)n4Cc3ccccn3)c2Cl)CC1 [Compound 53]	
0.455	0.1 to 1	COc1nc2c(OCc3c(Cl)ccc(N(C)C(=O)CNC(=O)CCN4CCOCC4)c3Cl)cccc2n1Cc1ccccn1 [Compound 54]	
0.984	0.1 to 1	COc1nc2c(OCc3c(Cl)ccc(N(C)C(=O)CNC(=O)CCCN4CCN(C(C)=O)CC4)c3Cl)cccc2n1Cc1ccccn1 [Compound 55]	
3.15	> 1	COc1nc2c(OCc3c(Cl)ccc(N(C)C(=O)CNC(=O)CCN4CCNCC4)c3Cl)cccc2n1Cc1ccccn1 [Compound 58]	
2.14	0.1 to 1	CCc1nc2c(OCc3c(Cl)ccc(N(C)C(=O)CNC(=O)CCN4CCN(C(=O)NC)CC4)c3Cl)cccn2c1C(O)c1ccccn1 (stereo not drawn) [Compound 59]	
	0.1 to 1	CCc1nc2c(OCc3c(C)ccc(N(C)C(=O)CNC(=O)CCN4CCN(C(=O)NC)CC4)c3C)cccc2n1Cc1ccccn1 [Compound 60]	
		N=C(N)NCCC[C@H](NC(=O)[C@H](Cc1ccccc1)NC(=O)[C@@H]1CCCN1C(=O)[C@H](CO)NC(=O)[C@H](Cc1ccccc1)NC(=O)CNC(=O)[C@@H]1C[C@@H](O)CN1C(=O)[C@@H]1CCCN1C(=O)[C@@H](N)CCCNC(=N)N)C(=O)O [Hyp^3-BK, reference compound]	Ki [1]: 0.0019 ± 0.0011 µM; Ki ([1]; [3H]-BK Binding to Human Cloned B2 Receptor (Ki, nM), class symbols, same assay as E1, given as class symbols (in μM)): < 0.1 µM
		NCCCC[C@H](N)C(=O)N[C@@H](CCCN=C(N)N)C(=O)N1CCC[C@H]1C(=O)N1CCC[C@H]1C(=O)NCC(=O)N[C@@H](Cc1ccccc1)C(=O)N[C@@H](CO)C(=O)N1CCC[C@H]1C(=O)N[C@@H](Cc1ccccc1)C(=O)N[C@@H](CCCN=C(N)N)C(=O)O [Lys-BK, reference compound]	Ki [1, 5]: < 0.1 µM
		CSCC[C@H](N)C(=O)N[C@@H](CCCCN)C(=O)N[C@@H](CCCNC(=N)N)C(=O)N1CCC[C@H]1C(=O)N1CCC[C@H]1C(=O)NCC(=O)N[C@@H](Cc1ccccc1)C(=O)N[C@@H](CO)C(=O)N1CCC[C@H]1C(=O)N[C@@H](Cc1ccccc1)C(=O)N[C@@H](CCCNC(=N)N)C(=O)O [Met-Lys-BK, reference compound]	Ki [1, 5]: < 0.1 µM

Compound	Ki [1, 4] [µM]	EC50 [2] [µM]	other results
3-(4-acetylpiperazin-1-yl)-N-(2-((2,4-dichloro-3-(((2-methoxy-1-(pyridin-2-ylmethyl)-1H-benzo[d]imidazol-4-yl)oxy)methyl)phenyl)(methyl)amino)-2-oxoethyl)propanamide [Compound 16]	0.985 ± 0.473	0.1 to 1	Ki [1, 5]: 0.1 to 1 µM
4-((2-((2-((3-(((2-methoxy-1-(pyridin-2-ylmethyl)-1H-benzo[d]imidazol-4-yl)oxy)methyl)-2,4-dimethylphenyl)(methyl)amino)-2-oxoethyl)amino)-2-oxoethyl)amino)-N-methylpiperidine-1-carboxamide [Compound 21]	0.881 ± 0.263	0.1 to 1	Ki [1, 5]: 0.1 to 1 µM
